# Data reported in patent publication US8575153B2 (Kowa Company, Ltd., priority 2008, dated 2013).
# Tests used:
# [1] = biological target: Recombinant human JAK3 enzyme (JAK3 kinase region; Ala795-Ser1124) (Homo sapiens, UniProt P52333); assay: JAK3 Kinase Assay (Kinase-Glo luminescent, ATP consumption); details: read-out: Inhibition rate (%) of JAK3 kinase activity
# Sequence of Recombinant human JAK3 enzyme (JAK3 kinase region; Ala795-Ser1124) (P52333 795-1124): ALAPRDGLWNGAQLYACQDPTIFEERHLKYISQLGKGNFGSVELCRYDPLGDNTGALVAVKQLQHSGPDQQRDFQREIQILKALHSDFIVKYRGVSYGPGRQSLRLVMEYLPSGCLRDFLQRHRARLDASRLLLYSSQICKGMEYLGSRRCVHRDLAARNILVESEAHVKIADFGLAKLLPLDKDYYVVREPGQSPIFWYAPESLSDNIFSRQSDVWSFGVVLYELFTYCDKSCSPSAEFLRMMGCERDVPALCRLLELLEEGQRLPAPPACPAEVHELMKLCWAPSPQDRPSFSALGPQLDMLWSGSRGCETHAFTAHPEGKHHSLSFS
SMILES,melting point,inhibition at 0.1 µM [1] [%]
"CC(C)S(=O)(=O)N1CCN(c2ccc(Nc3cc(NCc4cc(F)cc(F)c4)c(C(N)=O)cn3)cc2)CC1 [Example 170, 4-[(3,5-difluorobenzyl)amino]-6-({4-[4-(propan-2-ylsulfonyl)piperazin-1-yl]phenyl}amino) pyridine-3-carboxyamide]",239 to 242 °C (dec.),68
"COC1CCN(c2ccc(Nc3cc(NCc4cc(F)cc(F)c4)c(C(N)=O)cn3)cc2)CC1 [Example 190, 4-[(3,5-difluorobenzyl)amino]-6-{[4-(4-methoxypiperidino)phenyl]amino}pyridine-3-carboxyamide]",202.9 to 203.3 °C (dec.),89
"NCCCc1ccc(Nc2cc(NCc3cc(F)cc(F)c3)c(C(N)=O)cn2)cc1 [Example 201, 6-{[4-(3-aminopropyl)phenyl]amino}-4-[(3,5-difluorobenzyl)amino]pyridine-3-carboxyamide]",180 to 181 °C,60
"CCN(CC)CCN1CCN(c2ccc(Nc3cc(NCc4cccc([N+](=O)[O-])c4)c(C(N)=O)cn3)cc2)CC1 [Example 235, 6-[(4-{4-[2-(diethylamino)ethyl]piperazin-1-yl}phenyl)amino]-4-[(3-nitrobenzyl)amino]pyridine-3-carboxyamide]",165 to 166 °C,82
"N#CCCCN1CCN(c2ccc(Nc3cc(NCc4cccc([N+](=O)[O-])c4)c(C(N)=O)cn3)cc2)CC1 [Example 242, 6-({4-[4-(3-cyanopropyl)piperazin-1-yl]phenyl}amino)-4-[(3-nitrobenzyl)amino]pyridine-3-carboxyamide]",190 to 191 °C (dec.),77
"CS(=O)(=O)NCCN1CCN(c2ccc(Nc3cc(NCc4cc(F)cc(F)c4)c(C(N)=O)cn3)cc2)CC1 [Example 249, 4-[(3,5-difluorobenzyl)amino]-6-{[4-(4-{2-[(methylsulfonyl)amino]ethyl}piperazin-1-yl]phenyl]amino}pyridine-3-carboxyamide]",216 to 219 °C (dec.),81
"CNCCN1CCN(c2ccc(Nc3cc(NCc4cc(F)cc(F)c4)c(C(N)=O)cn3)cc2)CC1 [Example 251, 4-[(3,5-difluorobenzyl)amino]-6-[(4-{4-[2-(methylamino)ethyl]piperazin-1-yl}phenyl)amino]pyridine-3-carboxyamide]",113 to 120 °C (dec.),88

# More lines, now with the values ahead:
melting point,inhibition at 0.1 µM [1] [%],SMILES
238 to 240 °C (dec.),63,"NC(=O)c1cnc(Nc2ccc(N3CCC(O)CC3)cc2)cc1NCc1cc(F)cc(F)c1 [Example 191, 4-[(3,5-difluorobenzyl)amino]-6-{[4-(4-hydroxypiperidino)phenyl]amino}pyridine-3-carboxyamide]"
223 to 226 °C (dec.),89,"NC(=O)c1cnc(Nc2ccc(N3CCC(=O)CC3)cc2)cc1NCc1cc(F)cc(F)c1 [Example 192, 4-[(3,5-difluorobenzyl)amino]-6-{[4-(4-oxopiperidino)phenyl]amino}pyridine-3-carboxyamide]"
165 to 167 °C,61,"NC(=O)c1cnc(Nc2ccc(N3CCCNCC3)cc2)cc1NCc1ccccc1 [Example 226, 4-(benzylamino)-6-{[4-(1,4-diazepan-1-yl)phenyl]amino}pyridine-3-carboxyamide]"
224 to 227 °C,77,"CC(=O)N1CCCN(c2ccc(Nc3cc(NCc4ccccc4)c(C(N)=O)cn3)cc2)CC1 [Example 256, 6-{[4-(4-acetyl-1,4-diazepan-1-yl)phenyl]amino}-4-(benzylamino)pyridine-3-carboxyamide]"
233.5 to 235.2 °C (dec.),60,"CCCC(=O)N1CCN(c2ccc(Nc3cc(NCc4ccccc4)c(C(N)=O)cn3)cc2)CC1 [Example 258, 4-(benzylamino)-6-{[4-(4-butanoylpiperazin-1-yl)phenyl]amino}pyridine-3-carboxyamide]"
